Measured values: patent US8524744B2, “Arylamine ketones, their preparation methods, the pharmaceutical composition containing them and their use” (Institute of Mataria Medica, Chinese Academy of Medical …, priority 2004, dated 2013)
Counter-ions that a name gives are not always drawn.

Columns and labels:
rat paw swelling = settings: induced by PAF, carrageenan, histamine, 5-serotonin; cited from earlier work
[1] = system: mouse with arthritis induced by type III collagen; settings: cited from earlier work
NF-κB, TNF-α mRNA = settings: infected mice; cited from earlier work
[2] = system: patients with rheumatoid arthritis; settings: after administration for 4 weeks; cited from earlier work
mouse ear edema = settings: induced by arachidonic acid; cited from earlier work
[3] = system: new vessels in mouse angiogenesis model; settings: mouse angiogenesis model induced by synovial fluid of patient with rheumatoid arthritis; cited from earlier work
[4] = system: TNF-α level in synovial fluid of rat ankle joint; settings: induced by immune complex; cited from earlier work
[5] = system: polymorphonuclear leucocytes from rat pleural cavity; experiment: release of β-glucuronidase by polymorphonuclear leucocytes from rat pleural cavity in vitro (PAF as irritant); assay type: cell-based; settings: for Inhibition (%) of β-glucuronidase release: Dose 1 × 10^−5 mol · L^−1; for IC50: Leucocyte, rat polymorphonuclear leucocytes
Experimental: 1% carrageenan was injected into the right pleural cavity of Wistar rat to induce polymorphonuclear leucocytes. The cells was suspended in Dulbecoo's buffer at the concentration of 2.5×10^6 cells·ml^1. The fluid containing the compound or solvent and 250 μl of cells suspension were added in test tube and incubated in 37° C. waterbath for 15 min. Then 2.5 μl of cytochalasin B (1×10^−3 mol·L^−1) was added and the reaction was continued for 5 min. Then 2.5 μl of PAF (1×10^−4 mol·L^−1) was added and for another 5 min. The test tubes were put into ice bath to stop the reaction. The supernatant was isolated and used as the β-glucuronidase release fluid. 25 μl of the enzyme fluid, 25 μl of phenolphthalein-glucuronic acid (2.5 mmol·L^−1) and 100 μl of acetic acid buffer (0.1 mol·L^−1) were added into each well of 96-well plate which was placed into incubater and kept at 37° C.3 for 18 hr. 150 μl of NaOH (0.3 mol·L^−1) was added in each well to cease the reaction and the optical density was read at 550 nm.

[6] = system: production of TNF-α by macrophages from mouse peritoneal cavity; experiment: production of TNF-α by macrophages from mouse peritoneal cavity (LPS, L929 bioassay); assay type: cell-based; settings: Macrophage, 24 h, read-out: IC50, inhibition of the production of TNF-α
Experimental: The macrophages from mouse peritoneal cavity were prepared as described before. 500 μl of cells were inoculated in 48-well plate which was incubated with 5% CO2 at 37° C. for 2.5 hr. The compounds and LPS (final concentration: 10 μg·ml^−1) were added into each well of the plate. After incubating for 24 hr the supernatant was collected. The content of TNF-α was determined by following method. 100 μl of L929 cells (2×10^5cells·ml^−1) with 100 μl of RPMI-1640 or supernatant collected above were inoculated into 96-well plate which incubated under 5% CO2 at 37° C. for 20 hr. The supernatant was discarded. 200 μl of 0.5% crystal violet was added into each well. 10 min later crystal violet outside of the cells was rinsed using normal saline. The cells were dried under room temperature. 100 μl of 10% SDS was added into each well. After the cells were lysed completely the optical density was measured at 570 nm. The well of 1640 media was as the control, The content of TNF-a was evaluated by the percentage of L929 cells survival.

[7] = target: T1, PAF receptors of macrophages from mouse peritoneal cavity (Mus musculus, UniProt Q62035); experiment: competitive binding of [3H]-PAF to its receptors of macrophages from mouse peritoneal cavity; settings: 4° C, 150 min, read-out: Ki, competition with [3H]-PAF binding
T1 construct: The cells in peritoneal cavity were collected after injection for 3-4 days; endogenous in cells; host or cells: adherent peritoneal macrophages of C57BL/6 mice (primary)
Experimental: 4% of sodium mercaptoethanol was injected into C57BL/6 mouse peritoneal cavity to induce macrophages. The cells in peritoneal cavity were collected after injection for 3-4 days. 500 μl of suspension (5×10^5cells·ml^−1) was inoculated into 24-well culture plate which was placed into the incubator with 5% CO2 at 37° C for 2.5 hr. The non-adherent cells and serum in media were discarded. 490 μl of Tyrode-Hepes solution and 5 μl of [^3H]-PAF (final concentration: 2.8 nmol·L^−1) were added into each well. 5 μl of unlabeled PAF (5 μmol·L^1) was added into the well for the nonspecific binding. The series concentrations of compound were added into the well for the competitive binding and the corresponding volume of solvent was added into the wells for the total binding or the nonspecific binding. The reaction fluid was incubated at 4° C for 150 min and rinsed to wipe off the free labeled ligand. 300 μl of NaOH (0.3 mol·L^−1) was added to lyse the cells. The lysate fluid was transferred into a vial in which 7 ml of scintillation solution was added. The radioactivity strength was measured by scintillation counter.

[8] = system: macrophages from mouse peritoneal cavity; experiment: chemotaxis of macrophages from mouse peritoneal cavity induced by PAF; assay type: cell-based; settings: Macrophage, 2 hr, read-out: IC50, inhibition of chemotaxis
Experimental: 4% of sodium mercaptoethanol was injected into C57BL/6 mouse peritoneal cavity to induce macrophages. The cells in peritoneal cavity were collected after injection for 3-4 days. 27 μl of irritant was added into the well at low part of the chemotaxis plate. The filter membrane was covered on the wells and the top part of the plate was assembled on the filter. 55 μl of cells suspension with various concentrations of the compounds or solvent was added into the well at top part of the plate. The plate was placed into incubater with 5% CO2 at 37° C. for 2 hr. The filter was taken out, stained by hematoxylin and dehydrated. The cells migrated into the other side of the filter was counted by microscope.

[9] = system: cutaneous vascular permeability in mice induced by PAF; experiment: increase of cutaneous vascular permeability in mice induced by PAF; assay type: in vivo, mouse; settings: orally, 50 mg·kg^−1, Kunming mice
Experimental: Kunming mice (male, 18-22 g) were randomly divided into two groups (treatment and control) with 10 animals for each group. The animals were orally administrated with the compounds or solvent, respectively. 1 hr later, 0.25 ml of 1% evans blue dye was injected into the tail vein. After 10 min, 0.1 ml of PAF (1×10^−8 mol·L^−1) was intracutaneously injected into the dorsal skin shaved. 1 hr later, the animals were sacrificed by cervical vertebra displacement. The skin with blue spot was cut off. The evans blue dye was extracted by 0.8 ml of mixed solution of acetone and normal saline (7:3). The supernatant was transferred into the 96-well plate. The optical density was measured at 620 nm.

[10] = system: production of NO in macrophages from mouse peritoneal cavity; experiment: production of NO in macrophages from mouse peritoneal cavity (LPS and PAF); assay type: cell-based; settings: Macrophage, 24 h, read-out: IC50, inhibition of the production of NO
Experimental: 4% of sodium mercaptoethanol was injected into C57BL/6 mouse peritoneal cavity to induce macrophages. The cells in peritoneal cavity were collected after injection for 3-4 days. 500 μl of cells were inoculated in the well of 24 wells plate which was placed in the CO2 incubator at 37° C. for 2.5 hr to make the cells adherent. The cells were rinsed by 1640 culture media. 495 μl of 1640 media containing irritant and 5 μl the compound or solvent were added into each well. The plate was incubated for 24 hr. The supernatant was taken out and mixed with the same volume of Griess agent. The reaction fluid was kept at room temperature for 10 min and the optical density was measured at 550 nm. The numbers read was transferred into the content of NO.

[11] = system: mouse paw swelling induced by carrageenan; experiment: mouse paw swelling induced by carrageenan; assay type: in vivo; settings: orally, 50 mg·kg^−1, Kunming mice
Experimental: Kunming mice (male, 18-22 g) were randomly divided into two groups (treatment and control) with 10 animals for each group. The animals were orally administrated with compounds or solvent, respectively. 1 hr later, 50 μl of 1% carrageenan was intracutaneously injected into the sole of right posterior foot. After 4 hr the animals were sacrificed by displacing cervical vertebra. The two paws were cut off at ankle joint and weighed. The swelling was evaluated by the difference of the weights of two paws.

rat ear edema = settings: induced by PAF or PMA; cited from earlier work
[12] = system: mouse ear edema induced by croton oil; experiment: mouse ear edema induced by croton oil; assay type: in vivo; settings: orally, 50 mg·kg^−1, Kunming mice
Experimental: Kuming mice (male, 18-22 g) were randomly divided into two groups (treatment and control) with 10 animals for each group. The animals were orally administrated with compounds or solvent, respectively. 1 hr later, 50 μl of 2% croton oil was smeared on the two sides of mouse left ear. After 4 hr the mice were sacrificed by cervical vertebra displacement. The two ears were cut off and the central sections were excised using a punch with a diameter of 8 mm and weighed. Edema was quantified as the weight difference between the two sections.

rat neutrophils = experiment: chemotaxis of rat neutrophils in vitro; assay type: cell-based; settings: Neutrophil, 4 hr, read-out: IC50, inhibition of chemotaxis
Experimental: The blood was collected from rat common carotid artery and anticoagulated. The neutrophils was isolated by 5% glucose solution and lymphocyte separating medium. 27 μl of irritant was added into the well at low part of the chemotaxis plate. The filter membrane was covered on the wells and the top part of the plate was assembled on the filter. 50 μl of cells suspension with various concentrations of compound or solvent was added into the well at top part of the plate. The plate was incubated at 37° C. for 4 hr. The filter was taken out, stained by hematoxylin and dehydrated. The cells migrated into the other side of the filter was counted by microscope.

T1 sequence (Q62035 whole entry): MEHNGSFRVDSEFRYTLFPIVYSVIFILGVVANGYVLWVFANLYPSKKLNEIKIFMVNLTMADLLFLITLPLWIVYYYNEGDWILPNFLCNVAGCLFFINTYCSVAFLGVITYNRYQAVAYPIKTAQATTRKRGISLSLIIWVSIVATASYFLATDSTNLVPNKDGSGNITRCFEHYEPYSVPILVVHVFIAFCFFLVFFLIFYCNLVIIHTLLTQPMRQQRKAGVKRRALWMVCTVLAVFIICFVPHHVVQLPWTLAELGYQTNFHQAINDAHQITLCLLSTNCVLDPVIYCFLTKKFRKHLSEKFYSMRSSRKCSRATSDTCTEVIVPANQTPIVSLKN

CCCCCCCCCCCCCCCCCCNC(=O)OCC(COC(=O)N(Cc1cccc[n+]1CC)C(C)=O)OC (stereo not shown) [CV-6209]
rat paw swelling (rat paw swelling): inhibit

COc1ccc(NC(=S)N2CCc3c(sc4c3C(c3ccccc3Cl)=NCc3nnc(C)n3-4)C2)cc1 [BN50730]
consumption of proteoglycan in cartilage [1]: decrease | joint swelling [1]: significantly inhibit | precipitation of fibronectin in cartilage [1]: decrease | early activity of NF-κB (NF-κB, TNF-α mRNA): reduce | expression of TNF-α mRNA (NF-κB, TNF-α mRNA): reduce | symptom of patients with rheumatoid arthritis [2]: significantly improves

COc1cc([C@H]2CC[C@H](c3cc(OC)c(OC)c(OC)c3)O2)cc(CNC(=O)N(C)O)c1OCCSc1ccc(Cl)cc1 [LDP-392]
mouse ear edema (mouse ear edema): significantly inhibit

Cc1nnc2n1-c1sc3c(c1C(c1ccccc1Cl)=NC2)CC(C(=O)N1CCOCC1)C3 (stereo not shown) [WEB2170]
increase of new vessels [3]: inhibit | increase of TNF-α level in synovial fluid [4]: inhibit

COc1ccc(C=CC(=O)CCN2CC(C)OC(C)C2)cc1O (stereo not shown) [Compound 36, 5-(2,6-Dimethylmorpholinyl)-1-(3-hydroxy-4-methoxyphenyl)-1-penten-3-one hydrochloride]
Inhibition (%) of β-glucuronidase release ([5]; Irritant 2 × 10^−7 mol · L^−1): 129.72% | IC50 [5]: 0.555 nM | IC50 [6]: 45.8 nM | Ki [7]: 48100 nM | IC50 [8]: 44.8 nM | Inhibition (%) of increase of cutaneous vascular permeability [9]: 33.50% | IC50 [10]: 3230 nM | Inhibition (%) of mouse paw swelling [11]: 28.00%

CN(C)C(=O)n1cc(C(=O)c2ccn3c2CS[C@@H]3c2cccnc2)c2ccc(-c3ccc(F)cc3)cc21 [Compound A-85783]
rat ear edema (rat ear edema): significantly inhibit

COc1ccc(C=CC(=O)CCN2CCC(Cc3ccccc3)CC2)cc1 [Compound 22a, 5-[(4-Benzyl)piperidyl]-1-(4-methoxyphenyl)-1-penten-3-one hydrochloride]
Inhibition (%) of mouse ear edema [12]: 31.22% | Inhibition (%) of β-glucuronidase release ([5]; Irritant 1 × 10^−6 mol · L^−1): 73.17% | IC50 [5]: 562 nM | IC50 (rat neutrophils): 4.05 nM | Inhibition (%) of increase of cutaneous vascular permeability [9]: 51.14% | Inhibition (%) of mouse paw swelling [11]: 23.33%

CCOc1cc(C=CC(=O)CCN2CC(C)OC(C)C2)ccc1O (stereo not shown) [Compound 37, 5-(2,6-Dimethylmorpholinyl)-1-(3-ethoxy-4-hydroxyphenyl)-1-penten-3-one hydrochloride]
Inhibition (%) of mouse ear edema [12]: 33.20% | Inhibition (%) of β-glucuronidase release ([5]; Irritant 2 × 10^−7 mol · L^−1): 79.24% | IC50 [5]: 1.23 nM | IC50 [6]: 2 nM | Ki [7]: 68300 nM | IC50 [8]: 83.2 nM | Inhibition (%) of increase of cutaneous vascular permeability [9]: 38.70% | IC50 [10]: 3690 nM | Inhibition (%) of mouse paw swelling [11]: 21.60%
